This is an account of results in patent publication US20090163517A1, “BENZOOXAZOLE, OXAZOLOPYRIDINE, BENZOTHIAZOLE AND THIAZOLOPYRIDINE DERIVATIVES” (priority 2005, published 2009).

Each structure is given as a SMILES string.

The assay concerns the target T1, human subtype 5 somatostatin receptor (Homo sapiens, UniProt P35346).
T1 construct: host or cells: CHO cell line, stably transfected; membranes prepared by sonication and centrifugation
Put plainly: SSTR5 radioligand binding on membranes of CHO cells expressing the human receptor (125I-labeled 11-Tyr somatostatin-14 tracer). The conditions noted are these: Ki calculated from IC50 by the Cheng-Prussoff equation, 0.05 nM 125I tracer, 1 hour at room temperature, read-out: SSTR 5 Ki. On the procedure: A CHO cell line stably transfected with a plasmid encoding the human subtype 5 somatostatin receptor (GenBank accession number D16827) was obtained from Euroscreen. Cells were cultured and used for binding and functional assays.
Membranes of these cells were prepared by sonication in the presence of protease inhibitors and subsequent fractionating centrifugation. The protein concentration in the membrane preparation was determined using a commercial kit (BCA kit, Pierce, USA). Membranes were stored at −80° C. until use. After thawing, membranes were diluted in assay buffer (50 mM TRIS-HCl at pH 7.4, 5 mM MgCl2 and 0.20% BSA (bovine serum albumine)) and subjected to dounce homogenization.
For binding studies, 0.1 mL membrane suspension, corresponding to app. 6×10^−15 mol receptor, was incubated for 1 hour at room temperature with 0.05 nM ^125I-labeled tracer (11-Tyr somatostatin-14, Perkin-Elmer) and either test compounds in varying concentrations or, for the determination of non-specific binding, 0.001 mM non-labeled somatostatin-14 (Sigma-Aldrich, Buchs, Switzerland). The incubation was stopped by filtration through GF/B glassfiber filters (Unifilter, Perkin-Elmer) and washing with ice-cold wash buffer (50 mM Tris-HCl at pH 7.4). The bound radioactivity was measured after application of a scintillation cocktail (Microscint 40, Perkin-Elmer) and expressed as disintegrations per minute (dpm).
The receptor concentration was determined in a prior saturation experiment where a fixed, arbitrary amount of membranes was incubated with a concentration range of radio-labeled tracer. This allows estimating the total number of specific binding sites per amount of protein (i.e., Bmax), typically between 1 and 5 pmol/mg.
The concentration of the test compound required to result in half maximal inhibition of binding of the radio-labeled tracer (IC50) was estimated from a concentration-versus-dpm graph. The binding affinity (Ki) was calculated from the IC50 by applying the Cheng-Prussoff equation for single binding sites.

T1 sequence (P35346 whole entry): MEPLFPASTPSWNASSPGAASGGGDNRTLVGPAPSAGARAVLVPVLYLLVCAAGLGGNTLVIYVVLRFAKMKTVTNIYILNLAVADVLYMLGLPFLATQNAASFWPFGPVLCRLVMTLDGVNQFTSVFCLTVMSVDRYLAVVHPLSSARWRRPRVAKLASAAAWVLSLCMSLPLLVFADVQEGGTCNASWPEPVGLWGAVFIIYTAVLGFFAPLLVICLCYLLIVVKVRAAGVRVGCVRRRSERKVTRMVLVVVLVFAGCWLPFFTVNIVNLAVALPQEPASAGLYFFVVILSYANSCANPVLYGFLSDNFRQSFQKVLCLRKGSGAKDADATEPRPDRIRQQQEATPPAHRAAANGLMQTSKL

A word on the Ki: it is a dissociation constant, usually derived from enzyme kinetics or from competition with a known ligand. Consider `CCOc1cc(CN2CCC(Nc3nc4c(N)cccc4o3)CC2)cc(OCC)c1-n1cccc1` [Example 23, N^2-[1-(3,5-Diethoxy-4-pyrrol-1-yl-benzyl)-piperidin-4-yl]-benzooxazole-2,4-diamine], for which the Ki is 6 nM.

`CCOc1cc(CN2CCC(Nc3nc4ccc(C(=O)O)cc4o3)CC2)cc(OCC)c1N` [Example 71, 2-[1-(4-Amino-3,5-diethoxy-benzyl)-piperidin-4-ylamino]-benzooxazole-6-carboxylic Acid]: the Ki was 44 nM.

`CCOc1cc(CN2CCC(Nc3nc4c([N+](=O)[O-])cccc4o3)CC2)ccc1F` [Example 73, [1-(3-Ethoxy-4-fluoro-benzyl)-piperidin-4-yl]-(4-nitro-benzooxazol-2-yl)-amine]: the Ki is 223 nM.
